In brackets after ≈: the same amount, converted by molar mass. Blank lines part the entries; values can stand above or below the compound they belong to.
Key:
Format in all cases: physicochemical
[1] = in vitro dissolution test of Drug 2 compositions in PBS; settings: dose 1000 μg/mL; for AUC90 / MDC90: initial ninety minutes; for AUC / Drug 2 Concentration: PBS, 37° C.
Experimental: The solid composition of Example 1 was evaluated in an in vitro dissolution test as follows. For each test, the composition was added to microcentrifuge tubes in duplicate. A 4.21 mg sample of the composition was added to each tube for a total concentration of 1000 μg/mL drug, if all of the drug had dissolved. The tubes were placed in a 37° C. temperature-controlled chamber, and 1.8 mL PBS containing 0.5 wt % sodium taurocholic acid and 1-palmitoyl-2-oleyl-sn-glycero-3-phosphocholine (NaTC/POPC, with a […] weight ratio) at pH 6.5 and 290mOsm/kg (model fasted duodenal solution, “MFDS”) was added to each respective tube. The samples were quickly mixed using a vortex mixer for about 60 seconds. The samples were centrifuged at 13,000 G at 37° C. for 1 minute. The resulting supernatant solution was then sampled and diluted 1:6 (by volume) with methanol and then analyzed by high-performance liquid chromatography (HPLC). The contents of each respective tube were mixed on the vortex mixer and allowed to stand undisturbed at 37° C. until the next sample was taken. Samples were collected at 4, 10, 20, 40, 90, and 1200 minutes.
A sufficient amount of the composition was added to each tube (in duplicate) for a total concentration of 1000 μg/mL drug, if all of the drug had dissolved. The tubes were placed in a 37° C. temperature-controlled chamber, and 1.8 mL PBS was added.
Control 5 (C5) consisted of crystalline Drug 2 alone, tested in PBS, and a sufficient amount of material was added so that the concentration of drug would have been 1000 μg/mL, if all the drug had dissolved.
A sufficient amount of the composition was added to each tube (in duplicate) for a total concentration of 1000 μg/mL drug, if all of the drug has dissolved. The tubes were placed in a 37° C. temperature-controlled chamber, and 1.8 mL PBS was added.
As a control (C6), a composition consisting of 25 wt % Drug 2 and 75 wt % HPMCAS-HF was formed using the rotoevaporation process described for Example 6. The composition was tested in vitro, and a sufficient amount of material was added to PBS so that the concentration of drug would have been 1000 μg/mL, if all of the drug had dissolved.

[2] = glass transition temperature (Tg) by DSC; settings: at less than 5% RH
Source text: A solid composition was formed by a spray-drying process as follows. […] A spray solution was formed containing 2.5 wt % Viracept, 1.5 wt % Pluronic F127, 1.0 wt % HPMC, 85.5 wt % methanol, and 9.5 wt % water. The solution was mixed until the polymers and drug had all dissolved. The spray solution was pumped using a high-pressure pump to a spray drier (a Niro type XP Portable Spray-Dryer with a Liquid-Feed Process Vessel (“PSD-1”)), equipped with a pressure nozzle (model WG-126, from Delavan LTV). The PSD-1 was equipped with a 5-foot 9-inch chamber extension. The chamber extension was added to the spray dryer to increase the vertical length of the dryer. The added length increased the residence time within the dryer, which allowed the product to dry before reaching the angled section of the spray dryer. The spray drier was also equipped with a 316 SS circular diffuser plate with 1/16-inch drilled holes, having a 1% open area. […] The Tg of the resulting composition was determined by DSC to be about 107° C. at less than 5% RH.
Solid compositions containing Drug 1 were prepared using various amounts of poloxamer 407 and the stabilizing polymers hydroxypropyl methyl cellulose and hydroxypropyl methyl cellulose acetate succinate as described below. […] The Tg of each composition, measured at a relative humidity of less than 10%, is also included in Table 6.

[3] = solubility in PBS, pH 6.5; settings: pH 6.5, aqueous buffer
[4] = in vitro dissolution test of Drug 1 compositions in PBS; settings: dose 1000 μg/mL; for AUC / Drug 1 Concentration: PBS, 37° C.
Experimental: The solid composition of Example 1 was evaluated in an in vitro dissolution test as follows. For each test, the composition was added to microcentrifuge tubes in duplicate. […] The samples were quickly mixed using a vortex mixer for about 60 seconds. The samples were centrifuged at 13,000 G at 37° C. for 1 minute. The resulting supernatant solution was then sampled and diluted 1:6 (by volume) with methanol and then analyzed by high-performance liquid chromatography (HPLC). The contents of each respective tube were mixed on the vortex mixer and allowed to stand undisturbed at 37° C. until the next sample was taken. Samples were collected at 4, 10, 20, 40, 90, and 1200 minutes. […] The tubes were placed in a 37° C. temperature-controlled chamber, and 1.8 mL PBS was added. As a control (C4), crystalline Drug 1 alone was tested in PBS and a sufficient amount of material was added so that the concentration of drug would have been 1000 μg/mL, if all of the drug had dissolved.

[5] = in vitro dissolution test of Drug 1 compositions in MFDS; settings: dose 1000 μg/mL; for AUC / Drug 1 Concentration: MFDS, 37° C.
Experimental: The solid composition of Example 1 was evaluated in an in vitro dissolution test as follows. For each test, the composition was added to microcentrifuge tubes in duplicate. […] The samples were quickly mixed using a vortex mixer for about 60 seconds. The samples were centrifuged at 13,000 G at 37° C. for 1 minute. The resulting supernatant solution was then sampled and diluted 1:6 (by volume) with methanol and then analyzed by high-performance liquid chromatography (HPLC). The contents of each respective tube were mixed on the vortex mixer and allowed to stand undisturbed at 37° C. until the next sample was taken. Samples were collected at 4, 10, 20, 40, 90, and 1200 minutes. As a control (C1), crystalline Drug 1 alone was added 1.8 mL of MFDS, at a sufficient amount so that the concentration of drug would have been 1000 μg/mL, if all of the drug had dissolved. […] Control C2 consisted of 50 wt % Drug 1 and 50 wt % HPMC. The composition was formed by first forming a spray solution consisting of […] Drug 1 and 250 mg HPMC in 58.7 gm of a 50.7:8 w/w mixture of acetone:water. This solution was pumped into a “mini” spray-drying apparatus via a Cole Parmer 74900 series rate-controlling syringe pump at a rate of 70 ml/hr. The spray solution was atomized through a Spraying Systems Co. two-fluid nozzle, Model No. SU1A, using a heated stream of nitrogen at a flow rate of 1 SCFM. The spray solution was sprayed into an 11-cm diameter stainless steel chamber. The heated gas entered the chamber at an inlet temperature of 110° C. and exited at ambient temperature. The resulting solid composition was collected on filter paper, dried under vacuum, and stored in a desiccator. This composition was tested in a dissolution test using the procedures described above except that a sufficient amount of the composition was added so that the concentration if all of the drug had dissolved would have been 3000 μg/mL. The stability of the solid composition of Example 1 was evaluated in an accelerated storage test. The composition was stored under elevated temperature and humidity conditions to increase the rate of physical changes occurring in the material in order to simulate a longer storage interval in a typical storage environment. A sample of the composition was stored for 3 weeks at 40° C./75% RH.

[6] = Drug 1, PBS, initial ninety minutes
[7] = Drug 1, MFDS, initial ninety minutes

C1200 ([1]; Drug 2, PBS, concentration of drug at 1200 minutes): <1 µg/mL
AUC90 ([1]; Drug 2, PBS): <100 µg·min/mL
MDC90 ([1]; Drug 2, PBS): <1 µg/mL
AUC ([1]; 0 min): <100 µg·min/mL
Drug 2 Concentration ([1]; 0 min): <1 µg/mL
AUC ([1]; 4 min): <100 µg·min/mL
Drug 2 Concentration ([1]; 4 min): <1 µg/mL
AUC ([1]; 10 min): <100 µg·min/mL
Drug 2 Concentration ([1]; 10 min): <1 µg/mL
AUC ([1]; 20 min): <100 µg·min/mL
Drug 2 Concentration ([1]; 20 min): <1 µg/mL
AUC ([1]; 40 min): <100 µg·min/mL
Drug 2 Concentration ([1]; 40 min): <1 µg/mL
AUC ([1]; 90 min): <100 µg·min/mL
Drug 2 Concentration ([1]; 90 min): <1 µg/mL
AUC ([1]; 1200 min): <100 µg·min/mL
Drug 2 Concentration ([1]; 1200 min): <1 µg/mL
Tg [2]: about 30 °C
solubility [3]: < 1 µg/mL
SMILES: CCOC(=O)N1c2ccc(C(F)(F)F)cc2[C@@H](N(Cc2cc(C(F)(F)F)cc(C(F)(F)F)c2)C(=O)OC)C[C@H]1CC [Drug 2, [2R,4S] 4-[(3,5-bis-trifluoromethyl-benzyl)-methoxycarbonyl-amino]-2-ethyl-6-trifluoromethyl-3,4-dihydro-2H-quinoline-1-carboxylic acid ethyl ester]

AUC90 ([1]; Drug 2, PBS): <100 µg·min/mL
MDC90 ([1]; Drug 2, PBS): <1 µg/mL
Tg [2]: 119 °C
AUC90 [4, 6]: 285 µg·min/mL
MDC90 [4, 6]: 6 µg/mL
AUC ([4]; 0 min): 0 µg·min/mL
Drug 1 Concentration ([4]; 0 min): 0 µg/mL
AUC ([4]; 4 min): 11 µg·min/mL
Drug 1 Concentration ([4]; 4 min): 5 µg/mL
AUC ([4]; 10 min): 46 µg·min/mL
Drug 1 Concentration ([4]; 10 min): 6 µg/mL
AUC ([4]; 20 min): 106 µg·min/mL
Drug 1 Concentration ([4]; 20 min): 6 µg/mL
AUC ([4]; 40 min): 180 µg·min/mL
Drug 1 Concentration ([4]; 40 min): 2 µg/mL
AUC ([4]; 90 min): 285 µg·min/mL
Drug 1 Concentration ([4]; 90 min): 2 µg/mL
AUC ([4]; 1200 min): 12,730 min*μg/mL
Drug 1 Concentration ([4]; 1200 min): 20 µg/mL
AUC90 [5, 7]: 9,500 min*μg/mL
MDC90 [5, 7]: 118 µg/mL
AUC ([5]; 0 min): 0 µg·min/mL
Drug 1 Concentration ([5]; 0 min): 0 µg/mL
AUC ([5]; 4 min): 160 µg·min/mL
Drug 1 Concentration ([5]; 4 min): 80 µg/mL
AUC ([5]; 10 min): 700 µg·min/mL
Drug 1 Concentration ([5]; 10 min): 98 µg/mL
AUC ([5]; 20 min): 1,700 min*μg/mL
Drug 1 Concentration ([5]; 20 min): 102 µg/mL
AUC ([5]; 40 min): 3,800 min*μg/mL
Drug 1 Concentration ([5]; 40 min): 108 µg/mL
AUC ([5]; 90 min): 9,500 min*μg/mL
Drug 1 Concentration ([5]; 90 min): 118 µg/mL
AUC ([5]; 1200 min): 247,000 min*μg/mL
Drug 1 Concentration ([5]; 1200 min): 310 µg/mL
solubility [3]: ~20 µg/mL (≈ 35.2 µM)
SMILES: Cc1c(O)cccc1C(=O)N[C@@H](CSc1ccccc1)[C@H](O)CN1C[C@H]2CCCC[C@H]2C[C@H]1C(=O)NC(C)(C)C [Drug 1, N-(1,1-dimethylethyl)decahydro-2-[(2R,3R)-2-hydroxy-3[(3-hydroxy-2-methylbenzoyl)amino]-4-(phenylthio)butyl]-3-isoquinolinecarboxamide (3s, 4aS, 8aS)-monomethanesulfonate]
